# Source: PubChem BioAssay AID2305 (GlaxoSmithKline (GSK), 2010)
# Tested on: P. falciparum 3D7 growth, pLDH absorbance
# Assay: P. falciparum 3D7 growth inhibition, dose response, strain 3D7 (AID 2305)
row,SMILES,IC50 [nM]
1,CCOc1ccc2nc(NC(=O)c3csnn3)sc2c1,480
2,O=c1cc(NCCCNC2CCOc3c(Cl)cc(Cl)cc32)[nH]c2ccccc12 (stereo not drawn),720
3,O=C(NC(CCCN1CCC(c2ccccc2)CC1)c1ccc(Cl)c(Cl)c1)c1cc(C(F)(F)F)cc(C(F)(F)F)c1 (stereo not drawn),860
4,Oc1c(C(Nc2ccccn2)c2ccc(Cl)cc2Cl)ccc2cccnc12 (stereo not drawn),890
5,CC(C)(C)c1ccc(NC(=O)c2cccc(CN3CCCN(Cc4ccc(F)cc4)CC3)c2)cc1,990
6,O=C(/C=C/c1ccc(-c2nc3ccc(Cl)cc3[nH]2)cc1)NC1CCN(Cc2ccccc2)CC1,610
7,Nc1c2c(nc3ccccc13)C(=Cc1ccc(O)cc1)CCC2,180
8,Cc1ccc(N2C(=O)C3C(C2=O)[C@]2(c4ccccc4)C(=O)[C@@]3(c3ccccc3)C(c3ccccc3)=C2c2ccccc2)c(C)c1 (stereo partly drawn),530
9,O=C(Nc1ccc(N2CCN(C(=O)C=Cc3ccccc3)CC2)c(Cl)c1)c1ccc([N+](=O)[O-])o1,860
10,O=C(N[C@@H](CC1CCCCC1)C(=O)NCCN1CCCC1)c1ccc(O)c(-c2ccc(Cl)c(Cl)c2)c1,310
11,COc1cc2c(cc1S(=O)(=O)c1ccc(COc3ccc(C(F)(F)F)cc3)cc1)CNCC2,750
12,Cc1ccc2sc(N(CCCn3ccnc3)C(=O)c3ccco3)nc2c1C,970
13,O=C(Cc1cccc(Cl)c1)N1CCc2cc3nccc(N4CCN5CCC[C@H]5C4)c3cc21,850
14,COc1ccc(NC(=O)NC2CCN(c3ccnc4cc(Cl)ccc34)CC2)cc1,730
15,CCc1cc2c3c(N)nc(N)nc3ccc2n1C(CC)CC,60
16,Cc1noc(C)c1-c1ccc2c(Nc3ccc(C(F)(F)F)cc3)c(C(N)=O)cnc2c1,320
17,Nc1nc(N)c2c(ccc3c2ccn3Cc2ccc(F)cc2)n1,10
18,CN(Cc1ccccc1)C(=O)c1nn(CCCN2CCC(N3CCCC3)CC2)cc1-c1ccc(Cl)c(Cl)c1,770
19,Cc1cc(NN=CC=Cc2ccccc2)c2ccccc2n1,760
20,c1ccc(COc2ccc(Nc3ncnc4cnc(-c5ccc(CNc6cccnc6)o5)cc34)cc2)cc1,860
21,O=C(/C=C/c1ccc(Cl)c(Cl)c1)N1CCC(CN2CCC(c3c[nH]c4ccncc34)CC2)CC1,730
22,COC(=O)c1c(C#N)c(OC)cc(O)c1CSC[C@H](Nc1nc(-c2ccc([N+](=O)[O-])cc2)cs1)C(=O)NCCN1CCCCC1,1060
23,COc1ccc(CNC(=O)c2cc3c(=O)n4ccccc4nc3n(CCc3ccccc3)c2=N)cc1,330
24,COc1cc(NC(=O)N2CCc3ccc(OCCN(C(C)C)C(C)C)cc32)cc(C(F)(F)F)c1,190
25,OC1CCC(Nc2ccc3ncc(-c4ccc(Cl)cc4)n3n2)CC1 (stereo not drawn),820

row,SMILES,IC50 [nM]
1,CCc1c[nH]c2c(N3CCCS3(=O)=O)cc(C(=O)N[C@@H](Cc3ccccc3)[C@H](O)CNC(C)(C)CCCC(C)C)cc12,670
2,COc1ccc2ncc(F)c(CCN3CCC(NCc4cc(F)c5c(c4)OCCO5)CC3)c2n1,350
3,O=C(/C=C/c1ccc([N+](=O)[O-])cc1)N1CCC(NS(=O)(=O)c2cccc(C(F)(F)F)c2)CC1,850
4,COc1cc2nc(NCC3CCN(c4nc(N)c5cc(OC)c(OC)cc5n4)CC3)nc(N)c2cc1OC,780
5,Oc1ccc(CCNc2nc(NCc3ccccc3-c3ccc(C(F)(F)F)cc3)nc(NC3CCNCC3)n2)cc1,920
6,O=C1NC(c2ccccc2)C2(CCN(CC(O)COc3cccc4ncccc34)CC2)O1 (stereo not drawn),740
7,CN(Cc1cccc(O)c1)C1CCCN(c2cc(NC(=O)c3ccc(F)cc3)ccn2)C1 (stereo not drawn),1070
8,CN1CCCc2cc(NC(=O)c3cc(-c4ccc(Cl)cc4)cs3)ccc2C1,810
9,COc1cc(OC)c2c(C)cc(NCCCn3ccnc3)nc2c1,800
10,Cc1cccc(CN2CCC(CNC(=O)c3cc4c(-c5ccccc5F)nn(C)c4s3)CC2)c1,1090
11,c1ccc2c(c1)ncc1c3ccccc3[nH]c21,870
12,CC(Cc1ccc(OC2CCCCC2)cc1)NCC(O)c1cccc(Cl)c1 (stereo not drawn),140
13,CC(C)Cc1cn(-c2nc(-c3nc4ccccc4[nH]3)cs2)c2cc(Cl)ccc12,480
14,c1ccc(Oc2cccc(Nc3ccnc4ccccc34)c2)cc1,1110
15,O=C(c1ccc(Cl)cc1)N1CCCC(C(=O)N(Cc2nnc(-c3ccccc3Cl)o2)C2CC2)C1 (stereo not drawn),230
16,O=C(n1c(-c2cc3ccccc3n2C(=O)C(F)(F)F)cc2ccccc21)C(F)(F)F,880
17,Cc1nc2sccn2c1C(=O)NCCc1ccccc1Cl,800
18,CCCCSc1ccc2nc(-c3c[nH]c4ccc(C#N)cc34)cn2c1,950
19,Cc1ccc(CNC(=O)[C@H](Cc2ccccc2)Nc2cc(C)nc(NCc3ccccc3C)n2)cc1,800
20,CC(=O)c1ccc(-c2cccc3c(CC(=O)Nc4ccc5nccc(N6CCN(C)CC6)c5c4)cccc23)cc1,500
21,COc1ccccc1C1CCN(C2CCC(NC(=O)/C=C/c3cc(F)cc(F)c3)CC2)CC1 (stereo not drawn),1110
22,Cc1ccc2cc(C3NC(=O)c4ccccc4N3)c(Cl)nc2c1 (stereo not drawn),940
23,COc1ccc(Oc2ccccc2CNCC2CCN(CC3CCCCC3)CC2)cc1,900
24,CN(CCCCCN1CCC(NC(=O)Nc2ccc(C(F)(F)F)cc2)C1)C(=O)/C=C/c1ccc(Cl)c(Cl)c1 (stereo not drawn),770
25,CC(C)Oc1cc2c(cc1NS(=O)(=O)c1ccc(-c3ccc(Cl)s3)cc1F)CCN(C)CC2,710

row,SMILES,IC50 [nM]
1,COc1ccc(C(=O)N2CCC3(CC2)C(=O)N(CC(=O)NCC2CCCCC2)CN3c2ccccc2)c(OC)c1,120
2,O=C(NCC(c1ccc(C(F)(F)F)cc1)N1CCCC1)c1cc(-c2ccncc2)c(-c2cccc(O)c2)o1 (stereo not drawn),1060
3,Cc1ccc(-c2nc3ccc(C(=O)NC4CCC(N5CCCc6ccc(C#N)cc6C5)CC4)cc3[nH]2)cc1 (stereo not drawn),1360
4,COc1ccc(CCNCCCCCCNCCc2ccccc2Cl)cc1OC,660
5,CC(=O)Oc1cc(C(=O)Nc2ccc(Cl)cc2)cc2ccccc12,860
6,Cn1ncc2c3c(CCN4CCC(NCc5ccc6c(c5)NC(=O)CO6)CC4)c(Cl)cnc3ccc21,490
7,O=C(Nc1ccc(-c2nc3ccccc3[nH]2)cc1)c1ccc([N+](=O)[O-])s1,250
8,CC(C)COc1ccc(Cl)cc1Cc1nc(-c2nc3ccc(CN4CCCC4)cc3[nH]2)co1,730
9,CSc1ccc(C[C@@H](C)NC[C@H](O)c2cccc(Cl)c2)cc1,940
10,CCC(c1ccccc1)c1nn2c(-c3cccs3)nnc2s1 (stereo not drawn),170
11,CC(O)C1CCCCN1C(=O)c1cccc(-c2cccc(-c3nc4ccccc4[nH]3)c2)c1 (stereo not drawn),530
12,COc1cc(NC(=O)/C=C/c2ccc(-c3ccccc3)cc2)ccc1OCCN(C(C)C)C(C)C,840
13,Cc1ccccc1Nc1nc(Nc2ccccc2)c2ccccc2n1,1000
14,CCN(CC)Cc1cc(Nc2c3ccc(Cl)cc3nc3cccc(OC)c23)ccc1O,30
15,CC1(C)CCCN(C(=O)c2cccc(-n3nc(-c4ccc(Cl)cc4)cc3N)c2)C1,710
16,CN1CCC(N2CCN(Cc3cccc(-c4cccc(-c5nc6ccccc6[nH]5)c4)c3)CC2)CC1,190
17,Cc1[nH]c(C)c(-c2ccc(Oc3cccc(Cl)c3)cc2)c(=O)c1Br,30
18,COc1cc2c(cc1OC)C(c1ccc(Br)cc1)CN(C)CC2 (stereo not drawn),940
19,O=C(Nc1ccc(F)cc1F)NC1CCN(c2ccnc3cc(Cl)ccc23)C1 (stereo not drawn),250
20,COc1ccc(NC(=O)[C@H](Cc2ccccc2)Nc2cc(C)nc(NCc3ccccc3C)n2)cc1,790
21,COc1ccc2nccc(N3CCC(O)(CCNCc4ccc5c(n4)NC(=O)CS5)CC3)c2n1,650
22,Cc1cc(N[C@@H](Cc2ccccc2)C(=O)Nc2ccccc2)nc(NCCc2ccccc2)n1,870
23,O=S(=O)(Nc1cccc(CCN2CCC(N3CCCCC3)CC2)c1)c1ccccc1C(F)(F)F,1150
24,Cc1ccc(Cn2c(N3CCC(C(=O)NCc4ccccn4)CC3)nc3ccccc32)cc1,410
25,COc1ccc(F)cc1-c1ccc(C(=O)N2CCCN(c3ccc(C(F)(F)F)cn3)CC2)cc1,160

row,SMILES,IC50 [nM]
1,CSc1cccc(Nc2nc3ccc(S(=O)(=O)NCC(C)C)cc3n2C(C)C(C)C)c1 (stereo not drawn),820
2,COc1cccc(N(CCCN2C(=O)c3cccc4cccc(c34)C2=O)C(=O)c2ccccc2C)c1,790
3,Oc1ccc(Cl)cc1CN1CCC(CCOC(c2ccccc2)c2ccc(Cl)cc2)CC1 (stereo not drawn),390
4,O[C@@H](c1cccc(OCc2ccccc2)c1)[C@@H]1CN(CCc2ccccc2)CC[C@@]1(O)c1ccccc1,220
5,COc1ccccc1-c1ccc(C(=O)NCC2CCCN(Cc3cccc(C(F)(F)F)c3)C2)s1 (stereo not drawn),1540
6,COc1cc(OC)c(NC(=O)Nc2ccnc3ccccc23)cc1Cl,750
7,COc1cc(C(F)(F)F)nc2c(CNCCCNc3cc(=O)c4ccccc4[nH]3)scc12,1180
8,COc1ccc2[nH]cc(C3CCN(CCC4CCN(C(=O)/C=C/c5ccc(Cl)c(Cl)c5)CC4)CC3)c2c1,860
9,CCOC(=O)c1cn(CC)c2cc(O[C@@H]3CCN(C(=O)OC(C)(C)C)C3)ccc2c1=O,290
10,CCc1c(C(=O)NC2CCC(N3CCC(c4ccccc4C)CC3)CC2)[nH]c2ccc(OC)cc12 (stereo not drawn),810
11,O=C(NCCN1CCC(NC(=O)c2ccc(-c3ccccn3)s2)CC1)c1cccc(C(F)(F)F)c1,860
12,O=C(/C=C/c1ccc(Cl)c(Cl)c1)N1CCC(NCc2ccc3[nH]ccc3c2)CC1,1020
13,CCCN(CCC)c1nn2c(=O)c(C(=O)N3CCN(Cc4ccccc4)CC3)cnc2s1,1000
14,CCc1cccc(-n2nc(OCC(=O)NC3CCCC3)c3cccnc32)c1,930
15,FC(F)(F)Oc1cccc(CNc2noc(-c3sccc3Br)n2)c1,880
16,COc1ccc2[nH]cc(C3C[C@H]4CC[C@@H](C3)N4CCC3CCN(C(=O)/C=C/c4ccc(Cl)c(Cl)c4)CC3)c2c1 (stereo partly drawn),620
17,OC(Cn1ccnc1)(c1ccc(Cl)cc1Cl)C1CCCCC1 (stereo not drawn),980
18,Cc1ccc(C)c2sc(N(CCCn3ccnc3)C(=O)c3ccco3)nc12,870
19,COc1ccc(CC2(c3ccc(F)cc3)N=C(N)N(CCCc3ccc(F)c(F)c3)C2=O)cc1 (stereo not drawn),780
20,COc1ccc(CN2CCC2=O)c(OC)c1,120
21,CC(Cc1ccc(NC(=O)[C@@H](C)NCCc2cccc(Cl)c2)cc1)NCCc1cccc(Cl)c1 (stereo partly drawn),780
22,Cc1ccc(NC(=O)c2ccc(N3CCN(c4ccncc4)CC3)cc2)cc1F,740
23,Cc1nc(C(=O)N2CCCC[C@H]2CNC(=O)c2ccc(-c3ccc(N4CCCC4=O)cc3C)cc2)c(-c2ccc(F)cc2)s1,460
